Assay results reported in publication PMC8459971, “Evaluation of the hepatotoxicity of the novel GPR40 (FFAR1) agonist CPL207280 in the rat and monkey” (PLoS ONE, 2021).
Where “and” joins values, the source holds several entries; their conditions need not be identical. Equal entries are not always repeated.

Tests used:
[1] = Stability in microsomes, mouse; assay type: in vitro ADME; settings: for average DEG [%]: mouse microsomes, with cofactors
Description: (§1) The final incubation volume was 500 μL. Two control compounds (verapamil and donepezil) were included for each microsomal species, along with the appropriate vehicle control. The reactions were terminated by transferring 50 μL of incubate to 100 μL methanol containing an internal standard (metoprolol) at appropriate time points (0, 10, 20, 40, 60, and 120 min for the test compound and 0, 5, 10, 20, 40, and 60 min for the control compounds). The termination plates were centrifuged at 4000 x g at 4°C for 30 min to precipitate the protein. The supernatants were then collected for analysis, and LC-MS/MS was used for detection purposes. The system consisted of an Acquity™ Binary Solvent Manager, Acquity™ 4-position heated column manager, 2777 Ultra High Pressure Autosampler, and a Xevo-TQ MS triple quadrupole mass spectrometer (Waters Ltd., Herts, UK). This process was carried out twice.

[2] = Stability in microsomes, mini pig; assay type: in vitro ADME; settings: for average DEG [%]: minipig microsomes, with cofactors
Description: as §1

HepG2 cells = experiment: Respiration in hepatocytes (Seahorse XF Mito stress test); assay type: cell-based, human; settings: for oxygen consumption rate, mito stress tracing: Fig2 A; for ECAR (Extracellular Acidification Rate) / OCR (Basal Oxygen Consumption rate): replicates
[3] = Mouse (CD) microsomes, mean n = 2
[4] = Mini pig microsomes, mean n = 2

Compound: CC#C[C@@H](CC(=O)O)c1ccc(OCC(C)=C(C)C)cc1 [CPL207280]
- half-life at 3 μM [1, 3]: 116 min
- microsomal CLint at 3 μM [1, 3]: 11.9 µL/min/mg
- average DEG [%] ([1]; 0 min): 100.0%
- average DEG [%] ([1]; 20 min): 83.3%
- average DEG [%] ([1]; 40 min): 69.8%
- average DEG [%] ([1]; 60 min): 71.2%
- half-life at 3 μM [2, 4]: 31 min
- microsomal CLint at 3 μM [2, 4]: 45 µL/min/mg
- average DEG [%] ([2]; 0 min): 100.0%
- average DEG [%] ([2]; 20 min): 67.0%
- average DEG [%] ([2]; 40 min): 40.9%
- average DEG [%] ([2]; 60 min): 26.3%
- oxygen consumption rate, mito stress tracing (HepG2 cells; HepG2, 0.3 uM, 34.6705 min): 80.249 and 97.2155 and 86.8514
- oxygen consumption rate, mito stress tracing (HepG2 cells; HepG2, 0.3 uM, 41.3548 min): 35.437 and 46.6744 and 43.9128
- oxygen consumption rate, mito stress tracing (HepG2 cells; HepG2, 0.3 uM, 47.9665 min): 35.8498 and 44.0725 and 43.5554
- oxygen consumption rate, mito stress tracing (HepG2 cells; HepG2, 0.3 uM, 54.5812 min): 34.6812 and 46.6208 and 43.7024
- oxygen consumption rate, mito stress tracing (HepG2 cells; HepG2, 0.3 uM, 61.2916 min): 130.123 and 163.716 and 142.011
- oxygen consumption rate, mito stress tracing (HepG2 cells; HepG2, 0.3 uM, 67.9128 min): 106.485 and 133.91 and 115.698
- oxygen consumption rate, mito stress tracing (HepG2 cells; HepG2, 0.3 uM, 74.5347 min): 96.5173
- oxygen consumption rate, mito stress tracing (HepG2 cells; HepG2, 1 uM, 34.6705 min): 100.011 and 78.8082 and 81.9508
- oxygen consumption rate, mito stress tracing (HepG2 cells; HepG2, 1 uM, 41.3548 min): 47.2411 and 41.158 and 37.0741
- oxygen consumption rate, mito stress tracing (HepG2 cells; HepG2, 1 uM, 47.9665 min): 46.2402 and 40.9403 and 37.3629
- oxygen consumption rate, mito stress tracing (HepG2 cells; HepG2, 1 uM, 54.5812 min): 47.0103 and 40.8472 and 36.7203
- oxygen consumption rate, mito stress tracing (HepG2 cells; HepG2, 1 uM, 61.2916 min): 170.96 and 125.782 and 138.858
- oxygen consumption rate, mito stress tracing (HepG2 cells; HepG2, 1 uM, 67.9128 min): 139.39 and 102.287 and 110.384
- oxygen consumption rate, mito stress tracing (HepG2 cells; HepG2, 1 uM, 74.5347 min): 123.934 and 92.2309 and 99.0802
- oxygen consumption rate, mito stress tracing (HepG2 cells; HepG2, 10 uM, 34.6705 min): 110.191 and 84.6025 and 86.6099
- oxygen consumption rate, mito stress tracing (HepG2 cells; HepG2, 10 uM, 41.3548 min): 53.0343 and 43.3081 and 40.0605
- oxygen consumption rate, mito stress tracing (HepG2 cells; HepG2, 10 uM, 47.9665 min): 52.304 and 44.0598 and 40.3019
- oxygen consumption rate, mito stress tracing (HepG2 cells; HepG2, 10 uM, 54.5812 min): 53.3375 and 43.9407 and 40.3833
- oxygen consumption rate, mito stress tracing (HepG2 cells; HepG2, 10 uM, 61.2916 min): 205.106 and 144.168 and 145.662
- oxygen consumption rate, mito stress tracing (HepG2 cells; HepG2, 10 uM, 67.9128 min): 156.881 and 114.329 and 108.157
- oxygen consumption rate, mito stress tracing (HepG2 cells; HepG2, 10 uM, 74.5347 min): 137.02 and 102.413 and 95.1094
- oxygen consumption rate, mito stress tracing (HepG2 cells; HepG2, 30 uM, 34.6705 min): 92.7755 and 86.7994 and 98.474
- oxygen consumption rate, mito stress tracing (HepG2 cells; HepG2, 30 uM, 41.3548 min): 47.1023 and 44.4378 and 48.0839
- oxygen consumption rate, mito stress tracing (HepG2 cells; HepG2, 30 uM, 47.9665 min): 46.5085 and 44.5297 and 49.242
- oxygen consumption rate, mito stress tracing (HepG2 cells; HepG2, 30 uM, 54.5812 min): 47.3133 and 45.4103 and 49.1801
- oxygen consumption rate, mito stress tracing (HepG2 cells; HepG2, 30 uM, 61.2916 min): 166.246 and 150.833 and 168.619
- oxygen consumption rate, mito stress tracing (HepG2 cells; HepG2, 30 uM, 67.9128 min): 122.701 and 115.579 and 125.99
- oxygen consumption rate, mito stress tracing (HepG2 cells; HepG2, 30 uM, 74.5347 min): 107.636 and 100.89 and 113.574
- oxygen consumption rate, mito stress tracing (HepG2 cells; HepG2, 100 uM, 34.6705 min): 67.4412 and 69.6068 and 55.4444
- oxygen consumption rate, mito stress tracing (HepG2 cells; HepG2, 100 uM, 41.3548 min): 37.8597 and 39.5148 and 33.1927
- oxygen consumption rate, mito stress tracing (HepG2 cells; HepG2, 100 uM, 47.9665 min): 37.9692 and 40.1535 and 34.8525
- oxygen consumption rate, mito stress tracing (HepG2 cells; HepG2, 100 uM, 54.5812 min): 38.5804 and 40.5605 and 35.0114
- oxygen consumption rate, mito stress tracing (HepG2 cells; HepG2, 100 uM, 61.2916 min): 98.1667 and 106.839 and 80.4832
- oxygen consumption rate, mito stress tracing (HepG2 cells; HepG2, 100 uM, 67.9128 min): 74.25 and 83.2846 and 59.4526
- ECAR (Extracellular Acidification Rate) (HepG2 cells; HepG2, 0.3 uM): 0.9978 and 0.9743 and 0.8743
- OCR (Basal Oxygen Consumption rate) (HepG2 cells; HepG2, 0.3 uM): 0.9555 and 0.9023 and 1.068
- ECAR (Extracellular Acidification Rate) (HepG2 cells; HepG2, 1 uM): 0.9613 and 0.9697 and 0.955
- OCR (Basal Oxygen Consumption rate) (HepG2 cells; HepG2, 1 uM): 0.9695 and 0.8683 and 1.043
- ECAR (Extracellular Acidification Rate) (HepG2 cells; HepG2, 10 uM): 1.014 and 1.053 and 0.9962
- OCR (Basal Oxygen Consumption rate) (HepG2 cells; HepG2, 10 uM): 1.0176 and 0.8931 and 1.143
- ECAR (Extracellular Acidification Rate) (HepG2 cells; HepG2, 30 uM): 0.995 and 1.079 and 1.004
- OCR (Basal Oxygen Consumption rate) (HepG2 cells; HepG2, 30 uM): 1.014 and 0.9586 and 1.1505
- ECAR (Extracellular Acidification Rate) (HepG2 cells; HepG2, 100 uM): 1.11 and 1.113 and 1.179
- OCR (Basal Oxygen Consumption rate) (HepG2 cells; HepG2, 100 uM): 1.005 and 0.9369 and 1.04
